Assay results reported in patent publication US11286278B2, “DPEP-1 binding agents and methods of use” (Arch Biopartners, Inc., priority 2018, dated 2022).
Ends that are not written are not given here.

How the values were obtained:
[1] = tested on: neutrophil adhesion in the hepatic sinusoids; assay: Neutrophil adhesion in hepatic sinusoids after LPS, intravital microscopy; type: in vivo, mouse; conditions: LysM gfp mice, LPS 0.5 mg/kg i.p., peptide 1 mM i.v.
Procedure: Six to ten week old LysM^(gfp) mice were injected with 1 mM dose of LSALT or 1KGAL (control) (intravenous) 5 minutes after the injection of 0.5 mg/kg of lipopolysaccharide (intraperitoneal). After 3 hours, animals were injected with ketamine and xylazine to provide general anesthesia. Fluorescently conjugated F4/80 and PECAM-1 antibodies were then administered via jugular vein cannulation and intravital spinning disk confocal microscopy was performed. The livers were imaged for an hour and the number of neutrophils were counted at different time points. Neutrophils which were stationary for ≥30 seconds in the liver sinusoids were counted as adherent cells. Data are representative of three independent experiments. An unpaired 2-tailed student's t-test was performed comparing LSALT, […] control treated group against the LPS treated group (*p<0.05).

DPEP1 = target: T1, DPEP1 (Homo sapiens, UniProt P16444); assay: Biotin transfer, neutravidin precipitation and DPEP1 western blot; type: binding; set-up: expressed in transfected cells; host or cells: Cos-1; conditions: 10 mg/ml biotin transfer peptide, UV activation
T1 sequence (P16444 17-385): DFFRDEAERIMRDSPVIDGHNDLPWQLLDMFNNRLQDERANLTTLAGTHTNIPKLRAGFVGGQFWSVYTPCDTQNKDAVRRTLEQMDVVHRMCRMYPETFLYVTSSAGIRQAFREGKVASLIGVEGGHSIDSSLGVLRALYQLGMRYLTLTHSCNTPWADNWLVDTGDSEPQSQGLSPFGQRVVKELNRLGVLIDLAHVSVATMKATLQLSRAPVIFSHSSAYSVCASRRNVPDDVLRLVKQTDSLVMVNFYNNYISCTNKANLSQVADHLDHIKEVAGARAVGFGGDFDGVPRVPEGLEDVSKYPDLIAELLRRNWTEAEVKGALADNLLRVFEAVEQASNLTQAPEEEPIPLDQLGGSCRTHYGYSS
Procedure: (§1) Cos-1 cells were transiently transfected with either 3 or 5 μg of membrane dipeptidase (DPEP-1) cDNA corresponding to the rat (Shown in FIG. 5A), human (Shown in FIG. 5B), or canine (Shown in FIG. 5E) DPEP-1 gene using Lipofectamine 2000 (Invitrogen) reagent in OptiMEM medium. 24 hours after transfection, DPEP-1 expresisng cells were re-seeded on collagen coated (neutralized) wells in 24 well plates and allowed to grow for 24 hours at 37° C. […] Cells were blocked with FBS/NBSA/Tween in PBS for 30 minutes on ice. Cells were then washed with PBS and incubated with Alexa-488 (green) conjugated LSALT, GFE-1, control peptide or DPEP-1 antibody ( 1/100) (Sigma) on ice for 30 minutes. […] After incubation, cells were washed with PBS and treated with 10 mg/ml biotin transfer peptide (LSALT, GFE-1 or Control Peptide (KGAL)] for 10 minutes. Cells were then washed with PBS and biotin transfer was enabled by UV activation of the aryl azide groups for 15 minutes at 363 nm. Residual fluid was removed and monolayers were lysed either with octyl-glucoside/RIPA or 8M urea. Isolated supernatants were rotated with 50 μl of neutr-avidin agarose beads at 4° C. for 24 hours. Beads were washed with corresponding buffers, boiled in Laemmli buffer and analyzed by western blot using a DPEP-1 specific antibody (Proteintech).

rat DPEP-1 = target: T2, rat DPEP-1 (Rattus norvegicus, UniProt P31430); assay: Immunofluorescence binding of Alexa-488 conjugated peptides to Cos-1 cells transfected with rat DPEP-1; conditions: Alexa-488 conjugate, on ice 30 minutes
T2 construct: expressed in transfected cells; host or cells: Cos-1
T2 sequence (P31430 17-384): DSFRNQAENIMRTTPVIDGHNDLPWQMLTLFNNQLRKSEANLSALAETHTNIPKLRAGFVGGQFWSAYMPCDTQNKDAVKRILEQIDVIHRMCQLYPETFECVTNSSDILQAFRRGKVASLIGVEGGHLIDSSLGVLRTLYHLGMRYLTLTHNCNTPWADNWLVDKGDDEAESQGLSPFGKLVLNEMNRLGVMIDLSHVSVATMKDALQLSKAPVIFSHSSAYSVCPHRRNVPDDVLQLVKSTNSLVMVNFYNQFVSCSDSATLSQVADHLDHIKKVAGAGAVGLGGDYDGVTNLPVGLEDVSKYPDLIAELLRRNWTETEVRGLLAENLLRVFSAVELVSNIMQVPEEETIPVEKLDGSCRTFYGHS
Procedure: as §1

[2] = tested on: DPEP1-expressing COS1 monolayers; assay: Cancer cell binding to DPEP1-expressing COS1 monolayers; type: cell-based; conditions: LSALT 50 μM
Procedure: Cos-1 cells were transfected with 3 μg of human DPEP-1 cDNA. Transfected cells were reseeded 24 hours after on 12 or 24 well places. 48 hours later, 70 W melanoma cells expressing stable GFP-luciferase were harvested using Puck's EDTA and 10×10^3 cells were seeded on top of the DPEP-1 expressing Cos-1 monolayer. Cells were incubated for 4 hours at 37 C. After incubation cells were vigorously washed two times with PBS. Cells were then fixed using paraformaldehyde (4%). The number 70 W melanoma cells bound/adhered were counted under 10× magnification over 10 different field of views using an inverted fluorescence microscope (FIG. 24A). […] A unpaired 2-tailed Student's t-test was performed to compare the binding of 70 W melanoma cells to DPEP-1 transfected cells against the control of mock transfected cells. Values shown are from three independent experiments; asterisks (***) indicate P<0.001 as compared with mock transfected cells.
LSALT decreases binding of metastatic cancer cells to DPEP1-expressing COS1 monolayers in vitro. […] FIGS. 21B-C show quantification of murine melanoma B16-F10 (B) or murine breast cancer E0771.LMB (C) cells that bind to COS1 (control) or DPEP1 COS1 in the absence or presence of LSALT (50 μM).

metastatic cancer cells = assay: Metastasis model in mice; type: in vivo; conditions: peptide 1 mM

Substance: H-LSALTPSPSWLKYKAL [LSALT]
- neutrophil adhesion in the hepatic sinusoids [1]: inhibits neutrophil adhesion in the hepatic sinusoids
- interaction with DPEP1 by biotin transfer (DPEP1): able to interact with DPEP1
- binding of fluorescently labelled peptide to rat DPEP-1 transfected Cos-1 cells (rat DPEP-1): Binds
- binding of murine breast cancer cells (E0771.LMB) to DPEP1 transfected COS-1 cells [2]: inhibits binding of murine cancer cells to DPEP1
- binding of murine melanoma cells (B16-F10) to DPEP1 transfected COS-1 cells [2]: inhibits binding of murine cancer cells to DPEP1
- tumor burden in livers (liver metastatic lesions) (metastatic cancer cells; animals injected with 4T1 murine breast cancer cells): reduces tumor burden in livers of animals injected with metastatic cancer cells
- tumor burden in livers and lungs (metastatic cancer cells; animals injected with metastatic cancer cells): reduces tumor burden in livers and lungs
